Measured values as given in ChEMBL document CHEMBL1123169, “Structurally specific binding of halogenated biphenyls to thyroxine transport protein” (J Med Chem, 1986).

Key:
[1] = molecular target: Transthyretin (Homo sapiens) (UniProt P02766)
Description: Relative binding affinity to prealbumin was determined from the competition binding assays and is expressed relative to L-T4

[2] = molecular target: Transthyretin (Homo sapiens) (UniProt P02766); experiment: Concentration at which 50% total binding to prealbumin protein.
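Throughout, for Binding affinity: competition binding to prealbumin, with affinity given relative to L-T4 as the reference ligand.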

Compound	Concentration [2] [nM]	Binding affinity [1]
Oc1ccc(-c2c(Cl)cc(Cl)cc2Cl)cc1		46
NC(Cc1cc(I)c(Oc2cc(I)c(O)c(I)c2)c(I)c1)C(=O)O (configuration not stated)		63
Oc1c(Cl)cc(-c2ccccc2)cc1Cl		851
Oc1c(-c2cc(Cl)c(Cl)c(Cl)c2)cc(Cl)c(Cl)c1Cl		208
c1ccc(-c2ccccc2)cc1		< 5
Oc1c(Cl)cc(-c2ccc(Cl)cc2)cc1Cl		501
NC(Cc1cc(I)c(-c2cc(I)c(O)c(I)c2)c(I)c1)C(=O)O (racemic)	3	331
Clc1cc(-c2cc(Cl)c(Cl)c(Cl)c2)cc(Cl)c1Cl		313
Oc1c(Cl)cc(-c2cc(Cl)c(O)c(Cl)c2)cc1Cl	1.5	661
NC(Cc1ccc(Oc2cc(I)c(O)c(I)c2)c(I)c1)C(=O)O (configuration not stated)		23
N[C@@H](Cc1cc(I)c(Oc2ccc(O)c(I)c2)c(I)c1)C(=O)O		2
N[C@@H](Cc1cc(I)c(Oc2cc(I)c(O)c(I)c2)c(I)c1)C(=O)O		100
Oc1c(Cl)cc(Cl)cc1-c1ccccc1		28
Clc1cc(Cl)cc(-c2cc(Cl)cc(Cl)c2)c1		411
Clc1cccc(Cl)c1-c1c(Cl)cccc1Cl		< 5
Oc1ccc(-c2cc(Cl)c(Cl)c(Cl)c2Cl)cc1		286

The next lines start with results.

Concentration [2] [nM]	Compound	Binding affinity [1]
0.87	O=C(O)c1cc(I)c(-c2cc(I)c(O)c(I)c2)c(I)c1	1150
2.5	Oc1ccc(-c2c(Cl)c(Cl)c(O)c(Cl)c2Cl)cc1	398
